Data from US10029992B2, “Diaminotriazine compounds and their use as herbicides” (BASF SE, priority 2014, dated 2018).

What was measured:
AMARE [1] = assay: Greenhouse experiment, pre-emergence treatment; format: in vivo, Amaranthus retroflexus; settings: pre-emergence method
Text: (§1) The seeds of the test plants were sown separately for each species. For the pre-emergence treatment, the active ingredients, which had been suspended or emulsified in water, were applied directly after sowing by means of finely distributing nozzles. The containers were irrigated gently to promote germination and growth and subsequently covered with transparent plastic hoods until the plants had rooted. This cover caused uniform germination of the test plants, unless this had been impaired by the active ingredients. Depending on the species, the plants were kept at 10-25° C. or 20-35° C., respectively. The test period extended over 2 to 4 weeks. During this time, the plants were tended, and their response to the individual treatments was evaluated. Evaluation was carried out using a scale from 0 to 100. 100 means no emergence of the plants, or complete destruction of at least the aerial moieties, and 0 means no damage, or normal course of growth. A moderate herbicidal activity is given at values of at least 60, a good herbicidal activity is given at values of at least 70, and a very good herbicidal activity is given at values of at least 85. […] [table]

ALOMY = assay: Greenhouse experiment, pre-emergence treatment; format: in vivo, Alopecurus myosuroides; settings: pre-emergence method
Text: (§2) The culture containers used were plastic flowerpots containing loamy sand with approximately 3.0% of humus as the substrate. The seeds of the test plants were sown separately for each species.
(§3) For the pre-emergence treatment, the active ingredients, which had been suspended or emulsified in water, were applied directly after sowing by means of finely distributing nozzles. The containers were irrigated gently to promote germination and growth and subsequently covered with transparent plastic hoods until the plants had rooted. This cover caused uniform germination of the test plants, unless this had been impaired by the active ingredients.
(§4) Depending on the species, the plants were kept at 10-25° C. or 20-35° C., respectively.
(§5) The test period extended over 2 to 4 weeks. During this time, the plants were tended, and their response to the individual treatments was evaluated.
(§6) Evaluation was carried out using a scale from 0 to 100. 100 means no emergence of the plants, or complete destruction of at least the aerial moieties, and 0 means no damage, or normal course of growth. A moderate herbicidal activity is given at values of at least 60, a good herbicidal activity is given at values of at least 70, and a very good herbicidal activity is given at values of at least 85.
(§7) The plants used in the greenhouse experiments were of the following species: […]

APESV = assay: Greenhouse experiment, pre-emergence treatment; format: in vivo, Apera spica-venti; settings: pre-emergence method
Text: as §2, §3, §4, §5, §6, §7

SETFA [2] = assay: Greenhouse experiment, pre-emergence treatment; format: in vivo, Setaria faberi; settings: pre-emergence method
Text: as §1

ECHCG [3] = assay: Greenhouse experiment, pre-emergence treatment; format: in vivo, Echinochloa crus-galli; settings: pre-emergence method
Text: as §2, §3, §4, §5, §6, §7

SETVI = assay: Greenhouse experiment, post-emergence treatment; format: in vivo, Setaria viridis; settings: post-emergence method, application rate 63 g/ha
Method: (§8) The seeds of the test plants were sown separately for each species. […] For this purpose, the test plants were either sown directly and grown in the same containers, or they were first grown separately as seedlings and transplanted into the test containers a few days prior to treatment. Depending on the species, the plants were kept at 10-25° C. or 20-35° C., respectively. The test period extended over 2 to 4 weeks. During this time, the plants were tended, and their response to the individual treatments was evaluated. Evaluation was carried out using a scale from 0 to 100. 100 means no emergence of the plants, or complete destruction of at least the aerial moieties, and 0 means no damage, or normal course of growth. A moderate herbicidal activity is given at values of at least 60, a good herbicidal activity is given at values of at least 70, and a very good herbicidal activity is given at values of at least 85. […] [table]

STEME = assay: Greenhouse experiment, post-emergence treatment; format: in vivo, Stellaria media; settings: post-emergence method, application rate 63 g/ha
Method: as §8

CAPBP = assay: Greenhouse experiment, post-emergence treatment; format: in vivo, Capsella bursa-pastoris; settings: post-emergence method, application rate 63 g/ha
Method: as §8

AMARE [4] = assay: Greenhouse experiment, post-emergence treatment; format: in vivo, Amaranthus retroflexus; settings: post-emergence method, application rate 125 g/ha
Method: as §8

SETFA [5] = assay: Greenhouse experiment, post-emergence treatment; format: in vivo, Setaria faberi; settings: post-emergence method, application rate 125 g/ha
Method: as §8

ABUTH = assay: Greenhouse experiment, post-emergence treatment; format: in vivo, Abutilon theophrasti; settings: post-emergence method, application rate 125 g/ha
Method: as §8

ECHCG [6] = assay: Greenhouse experiment, post-emergence treatment; format: in vivo, Echinochloa crus-galli; settings: post-emergence method, application rate 125 g/ha
Method: as §8

| SMILES | herbicidal activity against AMARE (AMARE [4]) | herbicidal activity against SETFA (SETFA [5]) | herbicidal activity against ABUTH (ABUTH) | also measured |
| --- | --- | --- | --- | --- |
| CC(C)(F)c1nc(N)nc(Nc2c(F)cccc2Oc2ccccc2)n1 [Example 25] |  |  |  | herbicidal activity against AMARE (AMARE [1]; application rate 0.25 kg/ha): very good (a very good herbicidal activity is given at values of at least 85); herbicidal activity against ALOMY (ALOMY; application rate 0.25 kg/ha): very good (a very good herbicidal activity is given at values of at least 85); herbicidal activity against APESV (APESV; application rate 0.25 kg/ha): very good (a very good herbicidal activity is given at values of at least 85) |
| COC(C)(C)c1nc(N)nc(Nc2c(F)cccc2Oc2cc(C)cc(C)c2)n1 [Example 36] |  |  |  | herbicidal activity against SEFTA (SETFA [2]; application rate 1000 g/ha): very good (a very good herbicidal activity is given at values of at least 85); herbicidal activity against ALOMY (ALOMY; application rate 0.25 kg/ha): good (a good herbicidal activity is given at values of at least 70); herbicidal activity against ECHCG (ECHCG [3]; application rate 1000 g/ha): very good (a very good herbicidal activity is given at values of at least 85); herbicidal activity against APESV (APESV; application rate 0.25 kg/ha): very good (a very good herbicidal activity is given at values of at least 85); herbicidal activity against APESV (APESV; application rate 1000 g/ha): very good (a very good herbicidal activity is given at values of at least 85) |
| CC(C)(F)c1nc(N)nc(Nc2c(F)cccc2Oc2cc(C(F)(F)F)cc(C(F)(F)F)c2)n1 [Example 52] |  |  |  | herbicidal activity against SETVI (SETVI): very good (a very good herbicidal activity is given at values of at least 85); herbicidal activity against STEME (STEME): very good (a very good herbicidal activity is given at values of at least 85); herbicidal activity against CAPBP (CAPBP): very good (a very good herbicidal activity is given at values of at least 85) |
| CC(C)(F)c1nc(N)nc(Nc2c(F)cccc2Oc2cc(Br)cc(Br)c2)n1 [Example 55] | very good (a very good herbicidal activity is given at values of at least 85) | very good (a very good herbicidal activity is given at values of at least 85) | very good (a very good herbicidal activity is given at values of at least 85) |  |
| CC(C)(F)c1nc(N)nc(Nc2c(F)cccc2Oc2cc(F)cc(Br)c2)n1 [Example 56] | very good (a very good herbicidal activity is given at values of at least 85) | very good (a very good herbicidal activity is given at values of at least 85) | good (a good herbicidal activity is given at values of at least 70) |  |
| COc1cc(Cl)cc(Oc2cccc(F)c2Nc2nc(N)nc(C(C)(C)F)n2)c1 [Example 57] | very good (a very good herbicidal activity is given at values of at least 85) | very good (a very good herbicidal activity is given at values of at least 85) | very good (a very good herbicidal activity is given at values of at least 85) |  |
| CC(C)(F)c1nc(N)nc(Nc2c(F)cccc2Oc2cc(Cl)cc(Br)c2)n1 [Example 58] | very good (a very good herbicidal activity is given at values of at least 85) | very good (a very good herbicidal activity is given at values of at least 85) | very good (a very good herbicidal activity is given at values of at least 85) |  |
| CC(C)(F)c1nc(N)nc(Nc2c(F)cccc2Oc2cc(F)cc(C#N)c2)n1 [Example 59] | very good (a very good herbicidal activity is given at values of at least 85) | very good (a very good herbicidal activity is given at values of at least 85) | very good (a very good herbicidal activity is given at values of at least 85) |  |
| CC(C)(F)c1nc(N)nc(Nc2c(F)cccc2Oc2cc(Br)cc(OC(F)(F)F)c2)n1 [Example 60] | very good (a very good herbicidal activity is given at values of at least 85) | very good (a very good herbicidal activity is given at values of at least 85) | very good (a very good herbicidal activity is given at values of at least 85) |  |
| COc1cc(Br)cc(Oc2cccc(F)c2Nc2nc(N)nc(C(C)(C)F)n2)c1 [Example 61] | very good (a very good herbicidal activity is given at values of at least 85) | very good (a very good herbicidal activity is given at values of at least 85) | very good (a very good herbicidal activity is given at values of at least 85) |  |
| COc1cc(F)cc(Oc2cccc(F)c2Nc2nc(N)nc(C(C)(C)F)n2)c1 [Example 62] | very good (a very good herbicidal activity is given at values of at least 85) | very good (a very good herbicidal activity is given at values of at least 85) | very good (a very good herbicidal activity is given at values of at least 85) |  |
| COc1cc(C)cc(Oc2cccc(F)c2Nc2nc(N)nc(C(C)(C)F)n2)c1 [Example 63] | very good (a very good herbicidal activity is given at values of at least 85) | very good (a very good herbicidal activity is given at values of at least 85) |  | herbicidal activity against ECHCG (ECHCG [6]): very good (a very good herbicidal activity is given at values of at least 85) |
| COc1cc(Oc2cccc(F)c2Nc2nc(N)nc(C(C)(C)F)n2)cc(C(F)(F)F)c1 [Example 65] |  | very good (a very good herbicidal activity is given at values of at least 85) | very good (a very good herbicidal activity is given at values of at least 85) | herbicidal activity against ECHCG (ECHCG [6]): very good (a very good herbicidal activity is given at values of at least 85) |
| CC(C)(F)c1nc(N)nc(Nc2c(F)cccc2Oc2cc(I)cc(I)c2)n1 [Example 67] |  | good (a good herbicidal activity is given at values of at least 70) |  | herbicidal activity against ECHCG (ECHCG [6]): good (a good herbicidal activity is given at values of at least 70) |
| CCOc1cc(OCC)cc(Oc2cccc(F)c2Nc2nc(N)nc(C(C)(C)F)n2)c1 [Example 68] |  | very good (a very good herbicidal activity is given at values of at least 85) | very good (a very good herbicidal activity is given at values of at least 85) | herbicidal activity against ECHCG (ECHCG [6]): very good (a very good herbicidal activity is given at values of at least 85) |
| CC(C)Oc1cc(F)cc(Oc2cccc(F)c2Nc2nc(N)nc(C(C)(C)F)n2)c1 [Example 99] |  |  |  | herbicidal activity against AMARE (AMARE [1]; application rate 500 g/ha): very good (a very good herbicidal activity is given at values of at least 85); herbicidal activity against ALOMY (ALOMY; application rate 500 g/ha): very good (a very good herbicidal activity is given at values of at least 85); herbicidal activity against ECHCG (ECHCG [3]; application rate 500 g/ha): very good (a very good herbicidal activity is given at values of at least 85) |
| CC(C)(F)c1nc(N)nc(Nc2c(F)cccc2Oc2cc(F)cc(I)c2)n1 [Example 101] |  |  |  | herbicidal activity against SEFTA (SETFA [2]; application rate 250 g/ha): very good (a very good herbicidal activity is given at values of at least 85); herbicidal activity against ALOMY (ALOMY; application rate 250 g/ha): good (a good herbicidal activity is given at values of at least 70); herbicidal activity against ECHCG (ECHCG [3]; application rate 250 g/ha): very good (a very good herbicidal activity is given at values of at least 85) |
